Results as given in ChEMBL document CHEMBL5512674, “Novel Acyl Thiourea-Based Hydrophobic Tagging Degraders Exert Potent Anti-Influenza Activity through Two Distinct Endonuclease Polymerase Acidic-Targeted Degradation Pathways” (J Med Chem, 2024).
Activity calls are given as the source filed them. The rule behind the calls is not given here.

What was measured:
Influenza A virus [1] = experiment: Anti-influenza activity against Influenza A virus A/PR/8/34 (H1N1) infected in MDCK cells assessed as inhibition of viral growth at 1 uM incubated for 48 hrs by luciferase assay relative to control; assay type: functional
[2] = Hepatic extraction ratio in human liver microsomes preincubated for 5 mins followed by NADPH addition and measured for 45 mins by LC-MS analysis; assay type: ADME, Microsome; conditions: time 50 min, read-out: ERH
Enterovirus [3] = experiment: Antiviral activity against Enterovirus 71 infected in RD cells assessed as inhibition of viral replication incubated for 24 hrs by CCK-8 assay; assay type: functional, organism-based
[4] = target: T1, von Hippel-Lindau disease tumor suppressor/Polymerase acidic protein (Influenza A virus (A/Puerto Rico/8/1934(H1N1))) (UniProt P03433+P40337); experiment: PROTAC activity at Influenza A virus A/WSN/33(H1N1) flag tagged Polymerase acidic protein/VHL (unknown origin) expressed in HEK293T cells assessed as degradation of PA expression at 5 uM incubated for 24 hrs in presence of 3-methyladenine by Western blotting analysis; assay type: cell-based
enterovirus D68 = experiment: Antiviral activity against enterovirus D68 infected in RD cells assessed as inhibition of viral replication incubated for 24 hrs by CCK-8 assay; assay type: functional, organism-based
[5] = target: T1, von Hippel-Lindau disease tumor suppressor/Polymerase acidic protein (Influenza A virus (A/Puerto Rico/8/1934(H1N1))); experiment: PROTAC activity at Influenza A virus A/WSN/33(H1N1) flag tagged Polymerase acidic protein/VHL (unknown origin) expressed in HEK293T cells assessed as degradation of PA expression at 5 uM incubated for 24 hrs by Western blotting analysis; assay type: cell-based
[6] = Stability in human plasma assessed as compound remaining measured after 30 mins by LC-MS/MS analysis; assay type: ADME, cell-free; conditions: read-out: Stability
[7] = target: T2, von Hippel-Lindau disease tumor suppressor/Polymerase basic protein 1 (Influenza A virus (strain A/Puerto Rico/8/1934 H1N1)) (UniProt P03431+P40337); experiment: PROTAC activity at Influenza A virus A/WSN/33(H1N1) flag tagged Polymerase basic protein 1/VHL (unknown origin) expressed in HEK293T cells assessed as degradation of PB1 expression at 0.1 to 10 uM incubated for 24 hrs by Western blotting analysis; assay type: cell-based; conditions: dose 0.1-10 µM
[8] = target: T1, von Hippel-Lindau disease tumor suppressor/Polymerase acidic protein (Influenza A virus (A/Puerto Rico/8/1934(H1N1))); experiment: PROTAC activity at Influenza A virus A/WSN/33(H1N1) flag tagged Polymerase acidic protein/VHL (unknown origin) expressed in HEK293T cells assessed as degradation of PA expression at 5 uM incubated for 24 hrs in presence of chloroquine by Western blotting analysis; assay type: cell-based
Enterovirus [9] = experiment: Antiviral activity against Enterovirus CV-B1 infected in RD cells assessed as inhibition of viral replication incubated for 24 hrs by CCK-8 assay; assay type: functional, organism-based
[10] = target: T2, von Hippel-Lindau disease tumor suppressor/Polymerase basic protein 1 (Influenza A virus (strain A/Puerto Rico/8/1934 H1N1)); experiment: PROTAC activity at Influenza A virus A/WSN/33(H1N1) flag tagged Polymerase basic protein 1/VHL (unknown origin) expressed in HEK293T cells assessed as degradation of PB1 expression at 10 ug/ml incubated for 24 hrs by Western blotting analysis; assay type: cell-based; conditions: dose 10.0 µg/ml
[11] = target: von Hippel-Lindau disease tumor suppressor/Polymerase acidic protein (Influenza A virus (A/Puerto Rico/8/1934(H1N1)), UniProt P03433+P40337); experiment: PROTAC activity at Influenza A virus A/WSN/33(H1N1) flag tagged Polymerase acidic protein/VHL (unknown origin) expressed in HEK293T cells assessed as degradation of PA expression incubated for 24 hrs by Western blotting analysis; assay type: cell-based
Influenza A virus [12] = experiment: Anti-influenza activity against Influenza A virus H3N2 infected in HEK293T cells assessed as reduction in virus-induced cytopathic effect incubated for 48 hrs by CCK-8 assay; assay type: functional, organism-based; conditions: H3N2, HEK-293T
[13] = target: T1, von Hippel-Lindau disease tumor suppressor/Polymerase acidic protein (Influenza A virus (A/Puerto Rico/8/1934(H1N1))); experiment: PROTAC activity at Influenza A virus A/WSN/33(H1N1) flag tagged Polymerase acidic protein/VHL (unknown origin) expressed in HEK293T cells assessed as degradation of PA expression at 10 uM incubated for 8 hrs by Western blotting analysis; assay type: cell-based
[14] = target: T3, von Hippel-Lindau disease tumor suppressor/Polymerase basic protein 2 (Influenza A virus (strain A/Puerto Rico/8/1934 H1N1)) (UniProt P40337+P03428); experiment: PROTAC activity at Influenza A virus A/WSN/33(H1N1) flag tagged Polymerase basic protein 2/VHL (unknown origin) expressed in HEK293T cells assessed as degradation of PB2 expression at 1 ug/ml incubated for 24 hrs by Western blotting analysis; assay type: cell-based; conditions: dose 1.0 µg/ml
[15] = target: T1, von Hippel-Lindau disease tumor suppressor/Polymerase acidic protein (Influenza A virus (A/Puerto Rico/8/1934(H1N1))); experiment: PROTAC activity at Influenza A virus A/WSN/33(H1N1) flag tagged Polymerase acidic protein/VHL (unknown origin) expressed in HEK293T cells assessed as degradation of PA expression at 5 uM incubated for 24 hrs in presence of dipeptide RA by Western blotting analysis; assay type: cell-based
[16] = target: T1, von Hippel-Lindau disease tumor suppressor/Polymerase acidic protein (Influenza A virus (A/Puerto Rico/8/1934(H1N1))); experiment: PROTAC activity at Influenza A virus A/WSN/33(H1N1) flag tagged Polymerase acidic protein/VHL (unknown origin) expressed in HEK293T cells assessed as degradation of PA expression at 10 uM incubated for 24 hrs by Western blotting analysis; assay type: cell-based
[17] = Intrinsic clearance in mouse liver microsomes preincubated for 5 mins followed by NADPH addition and measured for 45 mins by LC-MS analysis; assay type: ADME, Microsome; conditions: time 50 min, read-out: CLH
Influenza B virus = experiment: Anti-influenza activity against Influenza B virus Yamagata/16/88 infected in HEK293T cells assessed as reduction in virus-induced cytopathic effect incubated for 48 hrs by CCK-8 assay; assay type: functional, organism-based; conditions: Yamagata/16/88, HEK-293T
[18] = Half life in mouse liver microsomes preincubated for 5 mins followed by NADPH addition and measured for 45 mins by LC-MS analysis; assay type: ADME, Microsome; conditions: time 50 min
[19] = target: T1, von Hippel-Lindau disease tumor suppressor/Polymerase acidic protein (Influenza A virus (A/Puerto Rico/8/1934(H1N1))); experiment: PROTAC activity at Influenza A virus A/WSN/33(H1N1) flag tagged Polymerase acidic protein/VHL (unknown origin) expressed in HEK293T cells assessed as degradation of PA expression at 0.02 to 10 uM incubated for 24 hrs by Western blotting analysis; assay type: cell-based; conditions: dose 0.02-10 µM
[20] = Cytotoxicity against dog MDCK cells assessed as reduction in cell viability incubated for 48 hrs by CCK-8 assay; assay type: toxicity, cell-based, Canis lupus familiaris
[21] = Half life in human liver microsomes preincubated for 5 mins followed by NADPH addition and measured for 45 mins by LC-MS analysis; assay type: ADME, Microsome; conditions: time 50 min
[22] = Stability in human plasma assessed as compound remaining by LC-MS/MS analysis; assay type: ADME, cell-free
[23] = target: T1, von Hippel-Lindau disease tumor suppressor/Polymerase acidic protein (Influenza A virus (A/Puerto Rico/8/1934(H1N1))); experiment: PROTAC activity at Influenza A virus A/WSN/33(H1N1) flag tagged Polymerase acidic protein/VHL (unknown origin) expressed in HEK293T cells assessed as degradation of PA expression at 5 uM incubated for 24 hrs in presence of proteasome inhibitor MG-132 by Western blotting analysis; assay type: cell-based
[24] = Hepatic clearance in mouse liver microsomes preincubated for 5 mins followed by NADPH addition and measured for 45 mins by LC-MS analysis; assay type: ADME, Microsome; conditions: time 50 min
[25] = Binding affinity to Influenza A virus A/WSN/33(H1N1) flag tagged Polymerase acidic protein assessed as dissociation constant incubated for 48 hrs by microscale thermophoresis assay; conditions: hek293t
[26] = Stability in human plasma assessed as compound remaining measured after 60 mins by LC-MS/MS analysis; assay type: ADME, cell-free; conditions: read-out: Stability
[27] = target: T3, von Hippel-Lindau disease tumor suppressor/Polymerase basic protein 2 (Influenza A virus (strain A/Puerto Rico/8/1934 H1N1)); experiment: PROTAC activity at Influenza A virus A/WSN/33(H1N1) flag tagged Polymerase basic protein 2/VHL (unknown origin) expressed in HEK293T cells assessed as degradation of PB2 expression at 10 ug/ml incubated for 24 hrs by Western blotting analysis; assay type: cell-based; conditions: dose 10.0 µg/ml

T3 sequence (P03428 whole entry, looked up): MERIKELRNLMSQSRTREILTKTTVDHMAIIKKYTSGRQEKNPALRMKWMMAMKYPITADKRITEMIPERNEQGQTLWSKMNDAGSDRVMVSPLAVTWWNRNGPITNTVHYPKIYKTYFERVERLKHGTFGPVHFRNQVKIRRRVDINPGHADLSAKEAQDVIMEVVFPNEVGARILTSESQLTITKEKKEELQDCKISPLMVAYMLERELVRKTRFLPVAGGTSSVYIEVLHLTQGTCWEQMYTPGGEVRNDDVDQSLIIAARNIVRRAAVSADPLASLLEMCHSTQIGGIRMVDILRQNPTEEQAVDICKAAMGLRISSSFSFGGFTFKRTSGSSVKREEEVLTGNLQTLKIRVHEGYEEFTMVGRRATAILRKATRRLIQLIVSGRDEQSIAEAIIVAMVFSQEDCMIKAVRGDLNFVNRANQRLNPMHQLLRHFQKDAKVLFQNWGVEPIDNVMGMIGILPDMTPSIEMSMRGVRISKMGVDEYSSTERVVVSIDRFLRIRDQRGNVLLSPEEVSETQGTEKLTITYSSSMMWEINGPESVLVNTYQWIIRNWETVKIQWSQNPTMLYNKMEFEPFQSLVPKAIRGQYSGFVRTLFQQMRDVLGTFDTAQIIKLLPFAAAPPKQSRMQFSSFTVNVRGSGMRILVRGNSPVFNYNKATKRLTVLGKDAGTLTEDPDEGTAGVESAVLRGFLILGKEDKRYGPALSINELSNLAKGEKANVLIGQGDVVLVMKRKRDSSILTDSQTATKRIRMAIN
T3 sequence (P40337 whole entry, looked up): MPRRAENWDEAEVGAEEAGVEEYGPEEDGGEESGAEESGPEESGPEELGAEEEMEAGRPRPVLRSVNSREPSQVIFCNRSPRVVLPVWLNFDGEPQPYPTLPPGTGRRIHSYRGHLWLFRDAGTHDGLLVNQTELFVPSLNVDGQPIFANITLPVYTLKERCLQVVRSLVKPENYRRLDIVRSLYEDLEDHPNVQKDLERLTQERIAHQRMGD
T2 sequence (P03431 whole entry, looked up): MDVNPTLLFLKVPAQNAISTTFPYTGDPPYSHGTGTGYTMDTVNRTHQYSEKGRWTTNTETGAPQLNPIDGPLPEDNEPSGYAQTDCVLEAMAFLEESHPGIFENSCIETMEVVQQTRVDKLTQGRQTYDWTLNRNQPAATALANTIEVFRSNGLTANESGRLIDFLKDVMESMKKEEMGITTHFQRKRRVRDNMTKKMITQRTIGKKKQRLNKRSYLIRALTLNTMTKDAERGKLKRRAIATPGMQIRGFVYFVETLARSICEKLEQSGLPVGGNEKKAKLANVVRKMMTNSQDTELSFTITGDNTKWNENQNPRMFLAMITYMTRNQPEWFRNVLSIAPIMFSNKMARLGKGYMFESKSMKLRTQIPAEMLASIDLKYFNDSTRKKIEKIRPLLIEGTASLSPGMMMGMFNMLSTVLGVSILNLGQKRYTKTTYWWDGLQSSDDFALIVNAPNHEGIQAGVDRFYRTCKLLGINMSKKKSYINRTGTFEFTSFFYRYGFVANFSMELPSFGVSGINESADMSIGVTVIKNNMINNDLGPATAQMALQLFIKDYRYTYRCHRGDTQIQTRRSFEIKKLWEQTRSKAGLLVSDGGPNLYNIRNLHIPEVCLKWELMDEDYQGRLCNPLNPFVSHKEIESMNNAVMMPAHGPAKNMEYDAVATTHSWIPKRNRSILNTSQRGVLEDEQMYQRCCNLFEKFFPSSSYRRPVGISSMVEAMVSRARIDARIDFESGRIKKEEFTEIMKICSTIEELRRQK
T2 sequence (P40337 whole entry, looked up): as the sequence (P40337 whole entry, looked up) above

## CC(C)(C)OC(=O)NCCCC[C@H](NC(=O)OC(C)(C)C)C(=O)NCCCCCCCC(=O)Nc1ccc(NC(=S)NC(=O)c2ccc(C(C)(C)C)cc2)cc1
Influenza A virus [1]
  inhibition at 1 µM: 96%
[2]
  hepatic extraction ratio at 0.75 h: 0.588
Enterovirus [3]
  Activity: Active
[4]
  Activity: inactive
Enterovirus D68
  Activity: Active
[5]
  Activity: Active
[6]
  remaining at 0.5 h: 108%
[7]
  Activity: inactive
[8]
  Activity: inactive
Enterovirus [9]
  Activity: Active
[10]
  Activity: inactive
[11]
  DC50: 60 nM
Influenza A virus [12]
  EC50: 36 nM
[13]
  Activity: Active
[14]
  Activity: inactive
[15]
  Activity: inactive
[16]
  Activity: Active
[17]
  CLint scaled: 170 mL/min/kg
Influenza B virus
  EC50: 73 nM
[18]
  half-life: 32.1 min
[19]
  Activity: Active
[20]
  CC50 at 48 h: > 200000 nM
[21]
  half-life: 12.7 min
[22]
  Stability: 100%
[23]
  Activity: inactive
[24]
  CLhep predicted: 58.8 mL/min/kg
[25]
  Kd: 720 nM
[26]
  remaining at 1 h: 96.9%
[27]
  Activity: inactive
